Test results from patent US8895544B2, “Indazoles” (Pfizer Limited, priority 2011, dated 2014).
Where a name gives a salt, the structure may show the parent alone.

What was measured:
JAK1 enzyme = JAK1 enzyme (Homo sapiens (Human), UniProt P23458); test: JAK1 isolated enzyme high ATP Caliper endpoint assay; assay type: biochemical; settings: 2.5 mM ATP, read-out: JAK-1 IC50;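 also: enzyme at 10 nM preincubated with inhibitor 30 min, then kinase reaction 120 min at room temperature, peptide phosphorylation read by microfluidic mobility shift with fluorescence, inhibition relative to HPE and ZPE plate controls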
JAK1 enzyme, sequence (P23458 whole entry): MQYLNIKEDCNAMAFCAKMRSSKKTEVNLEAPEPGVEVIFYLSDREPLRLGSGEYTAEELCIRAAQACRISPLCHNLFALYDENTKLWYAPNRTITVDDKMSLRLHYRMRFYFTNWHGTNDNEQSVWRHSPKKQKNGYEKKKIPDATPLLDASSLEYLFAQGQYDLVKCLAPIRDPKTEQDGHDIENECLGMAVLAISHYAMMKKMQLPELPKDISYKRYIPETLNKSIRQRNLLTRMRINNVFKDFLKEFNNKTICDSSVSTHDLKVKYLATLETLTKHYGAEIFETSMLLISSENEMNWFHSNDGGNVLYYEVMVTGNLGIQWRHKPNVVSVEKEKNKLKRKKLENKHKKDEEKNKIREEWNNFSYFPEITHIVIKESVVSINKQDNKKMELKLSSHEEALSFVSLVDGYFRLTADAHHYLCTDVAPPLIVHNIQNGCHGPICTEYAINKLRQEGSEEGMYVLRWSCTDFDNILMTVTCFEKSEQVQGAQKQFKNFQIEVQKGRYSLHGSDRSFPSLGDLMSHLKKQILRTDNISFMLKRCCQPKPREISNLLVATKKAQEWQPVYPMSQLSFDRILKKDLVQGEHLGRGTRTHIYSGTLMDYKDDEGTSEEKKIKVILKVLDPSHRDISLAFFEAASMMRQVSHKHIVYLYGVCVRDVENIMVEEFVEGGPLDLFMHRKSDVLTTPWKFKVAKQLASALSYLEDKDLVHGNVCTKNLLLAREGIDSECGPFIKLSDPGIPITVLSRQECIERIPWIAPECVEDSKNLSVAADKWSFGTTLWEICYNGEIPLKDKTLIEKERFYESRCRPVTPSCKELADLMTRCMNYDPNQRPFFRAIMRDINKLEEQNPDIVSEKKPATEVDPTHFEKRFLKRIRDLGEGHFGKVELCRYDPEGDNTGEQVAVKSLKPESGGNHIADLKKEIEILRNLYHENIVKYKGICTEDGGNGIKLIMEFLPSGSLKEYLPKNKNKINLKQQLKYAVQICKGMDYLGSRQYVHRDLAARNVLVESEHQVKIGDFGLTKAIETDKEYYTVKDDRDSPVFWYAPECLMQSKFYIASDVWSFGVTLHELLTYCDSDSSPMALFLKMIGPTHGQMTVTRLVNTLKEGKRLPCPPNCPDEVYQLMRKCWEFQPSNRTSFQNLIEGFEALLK
Description: JAK1 Isolated Enzyme High ATP Caliper Endpoint Assay
4 mM stock solutions of test compounds are prepared and serially diluted in 100% DMSO. A standard curve using PF-00956980 (commercially available from Sigma Aldrich) at a top concentration of 4 mM is also prepared. High percentage effect (HPE) is defined by 500 μM PF-00956980 and 0% effect (ZPE) is defined by 100% DMSO. Greiner 384 well plates are prepared containing 400 nl of serially diluted compound, standard and HPE/ZPE. Final top assay concentration is 80 μM as the assay dilution factor is fifty.
JAK1 enzyme (Invitrogen) stock solution is made up at 5.2 μM in sterile water. JAK1 enzyme stock is diluted to 20 nM in assay buffer (10 mM HEPES free acid pH 7.5, 10 mM HEPES free base pH 7.5, 10 mM MgCL2, 0.0005% Tween-20, 0.01% BSA) containing 2 mM DTT (all supplied by Sigma) with the addition of one protease tablet per 25 mls buffer (Roche). ATP is made up at 10 mM stock in sterile water and diluted to 5 mM in assay buffer. Peptide H236 (Caliper Life Sciences) is made up at 1.5 mM in 100% DMSO and diluted to 3 μM in assay buffer. Stop buffer comprises 140 mM HEPES, 22.5 mM EDTA (Sigma) and 0.15% coating reagent (Caliper Life Sciences).
Assays are performed in Greiner polypropylene 384 well plates. Following compound preparation within the plate 10 μl of enzyme in assay buffer containing DTT is added using a Multidrop Micro. Final assay concentration of enzyme is 10 nM. Compound and enzyme are pre-incubated for 30 minutes at room temperature using low evaporation lids before addition of 10 μl ATP/peptide mixture in assay buffer using a Multidrop Micro. Final assay concentrations are 2.5 mM ATP and 1.5 μM peptide. Plates are foil sealed and incubated for a further 120 minutes at room temperature. Stop solution is added to the plates (20 μl/well) using a Multidrop Micro and plates are loaded onto the Caliper EZReader II. Data is generated by the shift in mobility of non-phosphorylated peptide substrates and phosphorylated products by electrophoresis within a chip and detected via LED induced fluorescence. Data is analysed using LabChip EZReader software which calculates the relative heights of the substrate and product peaks and reports product/product plus substrate peak ratio. Test compound data are subsequently expressed as percentage inhibition defined by HPE and ZPE values for each plate. Percentage inhibition in the presence of test compound is plotted against compound concentration on a log scale to determine an IC50 from the resultant sigmoid curve.

JAK3 enzyme = JAK3 enzyme (Homo sapiens (Human), UniProt P52333); test: JAK3 isolated enzyme high ATP Caliper endpoint assay; assay type: biochemical; settings: 400 μM ATP, read-out: JAK-3 IC50
JAK3 enzyme, sequence (P52333 whole entry): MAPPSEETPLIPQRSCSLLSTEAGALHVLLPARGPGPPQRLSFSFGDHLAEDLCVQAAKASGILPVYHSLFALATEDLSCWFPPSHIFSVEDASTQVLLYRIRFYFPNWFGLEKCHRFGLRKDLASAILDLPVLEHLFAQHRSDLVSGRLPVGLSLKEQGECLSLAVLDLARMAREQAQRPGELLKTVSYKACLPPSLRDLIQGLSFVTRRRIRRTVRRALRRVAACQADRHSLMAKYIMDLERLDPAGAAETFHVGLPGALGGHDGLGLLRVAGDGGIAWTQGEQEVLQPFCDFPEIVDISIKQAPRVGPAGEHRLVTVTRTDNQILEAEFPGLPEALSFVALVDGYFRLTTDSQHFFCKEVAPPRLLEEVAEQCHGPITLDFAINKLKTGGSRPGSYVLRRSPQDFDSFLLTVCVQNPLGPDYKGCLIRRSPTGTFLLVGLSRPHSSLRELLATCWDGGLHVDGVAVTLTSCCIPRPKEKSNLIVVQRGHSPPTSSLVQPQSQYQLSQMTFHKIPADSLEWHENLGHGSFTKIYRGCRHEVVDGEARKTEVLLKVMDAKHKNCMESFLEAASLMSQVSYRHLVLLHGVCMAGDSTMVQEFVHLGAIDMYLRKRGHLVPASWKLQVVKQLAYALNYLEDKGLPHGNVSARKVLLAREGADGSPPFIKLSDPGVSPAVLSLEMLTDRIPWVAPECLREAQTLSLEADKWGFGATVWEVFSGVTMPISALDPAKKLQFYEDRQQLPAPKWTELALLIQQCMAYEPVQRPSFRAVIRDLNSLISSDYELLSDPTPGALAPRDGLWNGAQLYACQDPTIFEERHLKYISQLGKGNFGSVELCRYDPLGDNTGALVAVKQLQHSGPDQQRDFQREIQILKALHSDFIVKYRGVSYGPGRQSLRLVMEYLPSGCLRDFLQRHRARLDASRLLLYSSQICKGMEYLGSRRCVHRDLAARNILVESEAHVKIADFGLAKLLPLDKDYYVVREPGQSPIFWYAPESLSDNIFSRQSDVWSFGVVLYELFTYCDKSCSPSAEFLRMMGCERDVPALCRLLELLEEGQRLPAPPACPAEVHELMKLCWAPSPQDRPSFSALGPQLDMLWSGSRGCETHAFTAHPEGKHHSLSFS
Description: JAK3 Isolated Enzyme High ATP Caliper Endpoint Assay
4 mM stock solutions of test compounds are prepared and serially diluted in 100% DMSO. […] Greiner 384 well plates are prepared containing 400 nl of serially diluted compound, standard and HPE/ZPE. Final top assay concentration is 80 μM as the assay dilution factor is fifty.
JAK3 enzyme stock is diluted to 2 nM in assay buffer (10 mM HEPES free acid pH 7.5, 10 mM HEPES free base pH 7.5, 10 mM MgCL2, 0.0005% Tween-20, 0.01% BSA) containing 2 mM DTT (all supplied by Sigma). ATP is made up at 10 mM stock in sterile water and diluted to 800 μM in assay buffer. Peptide (American peptide company) is made up at 30 mM in 100% DMSO and diluted to 3 μM in assay buffer.
Assays are performed in Greiner polypropylene 384 well plates. Following compound preparation within the plate 10 μl of enzyme in assay buffer containing DTT is added using a Multidrop Micro. Final assay concentration of enzyme is 1 nM. Compound and enzyme are pre-incubated for 60 minutes at room temperature using low evaporation lids before addition of 10 μl ATP/peptide mixture in assay buffer using a Multidrop Micro. […] Plates are foil sealed and incubated for a further 60 minutes at room temperature. Stop solution is added to the plates (20 μl/well) using a Multidrop Micro and plates are loaded onto the Caliper EZReader II. Data is generated by the shift in mobility of non-phosphorylated peptide substrates and phosphorylated products by electrophoresis within a chip and detected via LED induced fluorescence. Data is analysed using LabChip EZReader software which calculates the relative heights of the substrate and product peaks and reports product/product plus substrate peak ratio. Test compound data are subsequently expressed as percentage inhibition defined by HPE and ZPE values for each plate. Percentage inhibition in the presence of test compound is plotted against compound concentration on a log scale to determine an IC50 from the resultant sigmoid curve.

Compound: CCc1cc(O)c(F)cc1-c1ccc2c(-c3nc4c([nH]3)CCN(Cc3ccc5cccnc5n3)C4)n[nH]c2c1 [Example 28, 5-Ethyl-2-fluoro-4-[3-(5-[1,8]naphthyridin-2-ylmethyl-4,5,6,7-tetrahydro-1H-imidazo[4,5-c]pyridin-2-yl)-1H-indazol-6-yl]-phenol]
- IC50 (JAK1 enzyme): 13.7 nM
- IC50 (JAK3 enzyme): 10.9 nM

Compound: CCc1cc(O)c(F)cc1-c1ccc2c(-c3nc4c([nH]3)CCN(Cc3cnc5ccccc5c3)C4)n[nH]c2c1 [Example 23, 5-Ethyl-2-fluoro-4-[3-(5-quinolin-3-ylmethyl-4,5,6,7-tetrahydro-1H-imidazo[4,5-c]pyridin-2-yl)-1H-indazol-6-yl]-phenol]
- IC50 (JAK1 enzyme): 1.7 nM
- IC50 (JAK3 enzyme): 1.2 nM

Compound: CCc1cc(O)c(F)cc1-c1ccc2c(-c3nc4c([nH]3)CCN(C(=O)c3ccc(F)cc3)C4)n[nH]c2c1 [Example 1, {2-[6-(2-Ethyl-5-fluoro-4-hydroxy-phenyl)-1H-indazol-3-yl]-1,4,6,7-tetrahydro-imidazo[4,5-c]pyridin-5-yl}-(4-fluoro-phenyl)-methanone]
- IC50 (JAK1 enzyme): < 0.7 nM
- IC50 (JAK3 enzyme): < 0.6 nM

Compound: CCc1cc(O)c(F)cc1-c1ccc2c(-c3nc4c([nH]3)CCN(C(=O)c3ccc(Cl)cn3)CC4)n[nH]c2c1 [Example 8, (5-Chloro-pyridin-2-yl)-{2-[6-(2-ethyl-5-fluoro-4-hydroxy-phenyl)-1H-indazol-3-yl]-4,5,7,8-tetrahydro-1H-imidazo[4,5-d]azebin-6-yl}-methanone]
- IC50 (JAK1 enzyme): 2.9 nM
- IC50 (JAK3 enzyme): 1.4 nM

Compound: CCc1cc(O)c(F)cc1-c1ccc2c(-c3nc4c([nH]3)CCN(C(=O)c3cnc(Oc5ccccc5F)cn3)C4)n[nH]c2c1 [Example 13, {2-[6-(2-Ethyl-5-fluoro-4-hydroxy-phenyl)-1H-indazol-3-yl]-1,4,6,7-tetrahydro-imidazo[4,5-c]pyridin-5-yl}-[5-(2-fluoro-phenoxy)-Dvrazin-2-yl]-methanone]
- IC50 (JAK1 enzyme): 1.5 nM
- IC50 (JAK3 enzyme): 3.6 nM

Compound: CCc1cc(O)c(F)cc1-c1ccc2c(-c3nc4c([nH]3)CCN(C(=O)c3ccc(F)cc3)CC4)n[nH]c2c1 [Example 10, {2-[6-(2-Ethyl-5-fluoro-4-hydroxy-phenyl)-1H-indazol-3-yl]-4,5,7,8-tetrahydro-1H-imidazo[4,5-d]azepin-6-yl}-(4-fluoro-phenyl)-methanone]
- IC50 (JAK1 enzyme): 4.5 nM
- IC50 (JAK3 enzyme): 1.3 nM

Compound: CCc1cc(O)c(F)cc1-c1ccc2c(-c3nc4c([nH]3)CCN(S(=O)(=O)c3ccc(F)cc3)C4)n[nH]c2c1 [Example 12, 5-Ethyl-2-fluoro-4-{3-[5-(4-fluoro-benzenesulfonyl)-4,5,6,7-tetrahydro-1H-imidazo[4,5-c]pyridin-2-yl]-1H-indazol-6-yl}-phenol]
- IC50 (JAK1 enzyme): 1.2 nM
- IC50 (JAK3 enzyme): 1.6 nM

Compound: CCc1cc(O)c(F)cc1-c1ccc2c(-c3nc4c([nH]3)CCN(C(=O)c3ccc(Cl)cn3)C4)n[nH]c2c1 [Example 15, (5-Chloro-pyridin-2-yl)-{2-[6-(2-ethyl-5-fluoro-4-hydroxy-phenyl)-1H-indazol-3-yl]-1,4,6,7-tetrahydro-imidazo[4,5-d]pyridin-5-yl}-methanone]
- IC50 (JAK3 enzyme): 1 nM

Compound: O=C(c1ccc(F)cc1)N1CCc2[nH]c(-c3n[nH]c4cc(-c5cc(F)c(O)cc5CC(F)(F)F)ccc34)nc2C1 [Example 30, (2-{6-[5-Fluoro-4-hydroxy-2-(2,2,2-trifluoro-ethyl)-phenyl]-1H-indazol-3-yl}-1,4,6,7-tetrahydro-imidazo[4,5-c]pyridin-5-yl)-(4-fluoro-phenyl)-methanone diethylamine salt]
- IC50 (JAK1 enzyme): 7.7 nM
- IC50 (JAK3 enzyme): 6.7 nM

Compound: CCc1cc(O)c(F)cc1-c1ccc2c(-c3nc4c([nH]3)CCN(C(=O)c3cc(C#N)ccn3)CC4)n[nH]c2c1 [Example 9, 2-{2-[6-(2-Ethyl-5-fluoro-4-hydroxy-phenyl)-1H-indazol-3-yl]-4,5,7,8-tetrahydro-1H-imidazo[4,5-d]azepine-6-carbonyl}-isonicotinonitrile]
- IC50 (JAK1 enzyme): 18.9 nM
- IC50 (JAK3 enzyme): 1.9 nM

Compound: CCc1cc(O)c(F)cc1-c1ccc2c(-c3nc4c([nH]3)CCN(Cc3ccc(O)cc3)C4)n[nH]c2c1 [Example 19, 5-Ethyl-2-fluoro-4-{3-[5-(4-hydroxy-benzyl)-4,5,6,7-tetrahydro-1H-imidazo[4,5-c]pyridin-2-yl]-1H-indazol-6-yl}-phenol]
- IC50 (JAK1 enzyme): 4.3 nM
- IC50 (JAK3 enzyme): 2.2 nM

Compound: CCc1cc(O)c(F)cc1-c1ccc2c(-c3nc4c([nH]3)CCN(C(=O)c3ccsn3)C4)n[nH]c2c1 [Example 2, {2-[6-(2-Ethyl-5-fluoro-4-hydroxy-phenyl)-1H-indazol-3-yl]-1,4,6,7-tetrahydro-imidazo[4,5-c]pyridin-5-yl}-isothiazol-3-yl-methanone]
- IC50 (JAK1 enzyme): 46 nM
- IC50 (JAK3 enzyme): 0.5 nM

Compound: CCc1cc(O)c(F)cc1-c1ccc2c(-c3nc4c([nH]3)CCN(Cc3ccnc(C#N)c3)C4)n[nH]c2c1 [Example 21, 4-{2-[6-(2-Ethyl-5-fluoro-4-hydroxy-phenyl)-1H-indazol-3-yl]-1,4,6,7-tetrahydro-imidazo[4,5-c]pyridin-5-ylmethyl}-pyridine-2-carbonitrile]
- IC50 (JAK1 enzyme): 5.9 nM
- IC50 (JAK3 enzyme): 1.4 nM

Compound: CCc1cc(O)c(F)cc1-c1ccc2c(-c3nc4c([nH]3)CCN(Cc3cccnc3C#N)C4)n[nH]c2c1 [Example 26, 3-{2-[6-(2-Ethyl-5-fluoro-4-hydroxy-phenyl)-1H-indazol-3-yl]-1,4,6,7-tetrahydro-imidazo[4,5-c]pyridin-5-ylmethyl}-pyridine-2-carbonitrile]
- IC50 (JAK1 enzyme): 4 nM
- IC50 (JAK3 enzyme): 4.1 nM

Compound: CCc1cc(O)c(F)cc1-c1ccc2c(-c3nc4c([nH]3)CCN(S(=O)(=O)c3ccc(N5CCOCC5)nc3)C4)n[nH]c2c1 [Example 6, 5-Ethyl-2-fluoro-4-{3-[5-(6-morpholin-4-yl-pyridine-3-sulfonyl)-4,5,6,7-tetrahydro-1H-imidazo[4,5-c]pyridin-2-yl]-1H-indazol-6-yl}-phenol]
- IC50 (JAK1 enzyme): 8.4 nM
- IC50 (JAK3 enzyme): 1.3 nM

Compound: {2-[6-(2-Ethyl-5-fluoro-4-hydroxy-phenyl)-1H-indazol-3-yl]-1,4,6,7-tetrahydro-imidazo[4,5-c]pyridin-5-yl}-isothiazol-3-yl-methanone [Example 3]
- IC50 (JAK1 enzyme): 3.7 nM

Compound: CCc1cc(O)c(F)cc1-c1ccc2c(-c3nc4c([nH]3)CCN(S(=O)(=O)c3ccc(Oc5ccccc5)nc3)C4)n[nH]c2c1 [Example 7, 5-Ethyl-2-fluoro-4-{3-[5-(6-phenoxy-pyridine-3-sulfonyl)-4,5,6,7-tetrahydro-1H-imidazo[4,5-c]pyridin-2-yl]-1H-indazol-6-yl}-phenol]
- IC50 (JAK1 enzyme): 2.5 nM
- IC50 (JAK3 enzyme): 1.5 nM

Compound: CCc1cc(O)c(F)cc1-c1ccc2c(-c3nc4c([nH]3)CCN(Cc3ccccc3)CC4)n[nH]c2c1 [Example 14, 4-[3-(6-Benzyl-1,4,5,6,7,8-hexahydro-imidazo[4,5-d]azepin-2-yl)-1H-indazol-6-yl]-5-ethyl-2-fluoro-phenol]
- IC50 (JAK1 enzyme): 0.8 nM
- IC50 (JAK3 enzyme): 1.4 nM

Compound: CCc1cc(O)c(F)cc1-c1ccc2c(-c3nc4c([nH]3)CCN(C(=O)c3ccsn3)CC4)n[nH]c2c1 [Example 11, {2-[6-(2-Ethyl-5-fluoro-4-hydroxy-phenyl)-1H-indazol-3-yl]-4,5,7,8-tetrahydro-1H-imidazo[4,5-d]azepin-6-yl}-isothiazol-3-yl-methanone]
- IC50 (JAK1 enzyme): 2.5 nM
- IC50 (JAK3 enzyme): 1 nM

Compound: CCc1cc(O)c(F)cc1-c1ccc2c(-c3nc4c([nH]3)CCN(Cc3cccc(OC)c3)C4)n[nH]c2c1 [Example 22, 5-Ethyl-2-fluoro-4-{3-[5-(3-methoxy-benzyl)-4,5,6,7-tetrahydro-1H-imidazo[4,5-c]pyridin-2-yl]-1H-indazol-6-yl}-phenol formic acid salt]
- IC50 (JAK1 enzyme): 3 nM
- IC50 (JAK3 enzyme): 2.6 nM

Compound: Oc1cc(CC(F)(F)F)c(-c2ccc3c(-c4nc5c([nH]4)CCN(Cc4ccccc4)C5)n[nH]c3c2)cc1F [Example 31, 4-[3-(5-Benzyl-4,5,6,7-tetrahydro-1H-imidazo[4,5-c]pyridin-2-yl)-1H-indazol-6-yl]-2-fluoro-5-(2,2,2-trifluoro-ethyl)-phenol diethylamine salt]
- IC50 (JAK1 enzyme): 66 nM
- IC50 (JAK3 enzyme): 186 nM

Compound: CCc1cc(O)c(F)cc1-c1ccc2c(-c3nc4c([nH]3)CCN(Cc3ccc(N5CCCCC5)nc3)C4)n[nH]c2c1 [Example 25, 5-Ethyl-2-fluoro-4-{3-[5-(3,4,5,6-tetrahydro-2H-[1,2′]bipyridinyl-5′-ylmethyl)-4,5,6,7-tetrahydro-1H-imidazo[4,5-c]pyridin-2-yl]-1H-indazol-6-yl}-phenol]
- IC50 (JAK1 enzyme): 4 nM

Compound: CCc1cc(O)c(F)cc1-c1ccc2c(-c3nc4c([nH]3)CCN(Cc3ccc(Oc5ccccc5)nc3)C4)n[nH]c2c1 [Example 24, 5-Ethyl-2-fluoro-4-{3-[5-(6-phenoxy-pyridin-3-ylmethyl)-4,5,6,7-tetrahydro-1H-imidazo[4,5-c]pyridin-2-yl]-1H-indazol-6-yl}-phenol]
- IC50 (JAK1 enzyme): 6.2 nM
- IC50 (JAK3 enzyme): 2.4 nM

Compound: O=C(c1cnc(N2CCCCC2)cn1)N1CCc2[nH]c(-c3n[nH]c4cc(-c5cc(F)c(O)cc5CC(F)(F)F)ccc34)nc2C1 [Example 29, (2-{6-[5-Fluoro-4-hydroxy-2-(2,2,2-trifluoro-ethyl)-pheny]-1H-indazol-3-yl}-1,4,6,7-tetrahydro-imidazo[4,5-c]pyridin-5-yl)-(5-piperidin-1-yl-pyrazin-2-yl)-methanone diethylamine salt]
- IC50 (JAK1 enzyme): 1.1 nM
- IC50 (JAK3 enzyme): 42 nM

Compound: CCc1cc(O)c(F)cc1-c1ccc2c(-c3nc4c([nH]3)CCN(Cc3cccc(O)c3)C4)n[nH]c2c1 [Example 20, 5-Ethyl-2-fluoro-4-{3-[5-(3-hydroxy-benzyl)-4,5,6,7-tetrahydro-1H-imidazo[4,5-c]pyridin-2-yl]-1H-indazol-6-yl}-phenol]
- IC50 (JAK1 enzyme): 2.6 nM
- IC50 (JAK3 enzyme): 5.6 nM

Compound: CCc1cc(O)c(F)cc1-c1ccc2c(-c3nc4c([nH]3)CCN(C(=O)c3ccc(C#N)nc3)C4)n[nH]c2c1 [Example 16, 5-{2-[6-(2-Ethyl-5-fluoro-4-hydroxy-phenyl)-1H-indazol-3-yl]-1,4,6,7-tetrahydro-imidazo[4,5-c]pyridine-5-carbonyl}-pyridine-2-carbonitrile]
- IC50 (JAK1 enzyme): 0.7 nM
- IC50 (JAK3 enzyme): 1.9 nM
